What was measured:
[1] = test system: Klebsiella pneumoniae (K. pneumoniae); assay: Ex vivo biodistribution in osteomyelitis foreign body rat model with K. pneumoniae infection vs inflammation model; parameters: species or system rats; conditions: 120 minutes post-injection, comparable SUVs except bladder and feces (FIG. 34)
Procedure: (§1) The acquired PET images were visualized and analyzed for quantifying standardized uptake value (SUV) using image analysis software—MIM 7 software and PMOD. Following final imaging at 120 minutes post-injection, the animal was euthanized, and major organs and infected and inflamed tibia were extracted for gamma counting for ex-vivo biodistribution analysis (see FIG. 22). At the end of last imaging session, rats were euthanized by cardiectomy, and the operated tibia with K-wire or contralateral tibia were aseptically removed. Following removal, tibias were weighed, and Ga-68 radioactivity was counted in 2480 Wizard2 automatic gamma counter for ex-vivo biodistribution assessment. The tibias were then frozen to −80° C. The frozen tibia from each animal was crushed aseptically using a bone pulverizer chilled at −80° C. The crushed tibia without K wire was weighed and vortexed in 1 mL sterile saline. The K wire was also vortexed in 1.0 mL sterile saline separately. The vortexed tibia and K-wire saline suspension were sonicated for 5 minutes. After sonication, 1:10 serial dilutions were prepared in saline and 0.1 mL of each dilution was plated in Trypticase Soy Agar plates with 5% Sheep Blood (TSA II). After 24 hours of incubation at 37° C., the bacterial cultures in tibia suspension and K-wire suspension were quantified. […]

[2] = test system: Methicillin-resistant Staphylococcus aureus (MRSA); assay: Ex vivo biodistribution SUV ratios (operated tibia/contralateral tibia), MRSA infection and inflammation; assay type: in vivo, rats; conditions: 120 minutes post-injection, p<0.05 (FIG. 31)
Procedure: The acquired PET images were visualized and analyzed for quantifying standardized uptake value (SUV) using image analysis software—MIM 7 software and PMOD. Following final imaging at 120 minutes post-injection, the animal was euthanized, and major organs and infected and inflamed tibia were extracted for gamma counting for ex-vivo biodistribution analysis (see FIG. 22). At the end of last imaging session, rats were euthanized by cardiectomy, and the operated tibia with K-wire or contralateral tibia were aseptically removed. Following removal, tibias were weighed, and Ga-68 radioactivity was counted in 2480 Wizard2 automatic gamma counter for ex-vivo biodistribution assessment. The tibias were then frozen to −80° C. […] After 24 hours of incubation at 37° C., the bacterial cultures in tibia suspension and K-wire suspension were quantified. […]
Turning now to FIG. 28, the localization of [^68Ga]Ga-H3P2O8 at an infection was investigated in comparison to [^68Ga]Ga-Citrate and [^18F]FDG. The uptake of [^68Ga]Ga-H3P2O8, [^68Ga]Ga-citrate and [^18F]FDG at 120 minutes post-injection in areas of Methicillin-resistant Staphylococcus aureus (MRSA) infection was determined by ex vivo biodistribution. Additionally, the uptake of [^68Ga]Ga-H3P2O8, [^68Ga]Ga-citrate and [^18F]FDG at 120 minutes post-injection in an inflammation was determined similarly. […]

[3] = test system: Pseudomonas aeruginosa (P. aeruginosa); assay: Ex vivo biodistribution in osteomyelitis foreign body rat model with P. aeruginosa infection vs inflammation model; parameters: species or system rats; conditions: 120 minutes post-injection, comparable SUVs except bladder and feces (FIG. 35)
Procedure: as §1

E coli = assay: Biodistribution in lung infected mice (E. coli) at 120 min post injection; assay type: in vivo
[4] = n = 3, 2 h post infection with E coli

O=P(O)(O)[O][Ga]1[O]P(=O)(O)[O]1 [[^68Ga]Ga-H3P2O8, [^68Ga]Ga-hydrogen bisphosphate]
distribution in organs/excrement of infected model compared with inflammation model [1]: similar
uptake as SUV ratios (Operated tibia/contralateral tibia), MRSA vs P. aeruginosa [2]: significant difference in uptake
distribution in organs/excrement of infected model compared with inflammation model [3]: similar
SUV ± STD, Adipose (E coli; [4]): 0.85 ± 0.64 SUV
SUV ± STD, Bladder (E coli; [4]): 3.11 ± 2.62 SUV
SUV ± STD, Blood (E coli; [4]): 2.09 ± 1.31 SUV
SUV ± STD, Bone (E coli; [4]): 2.70 ± 0.43 SUV
SUV ± STD, Brain (E coli; [4]): 0.05 ± 0.01 SUV
SUV ± STD, Cecum (E coli; [4]): 1.61 ± 1.29 SUV
SUV ± STD, Eye (E coli; [4]): 1.42 ± 1.91 SUV
SUV ± STD, Feces (E coli; [4]): 1.39 ± 1.10 SUV
SUV ± STD, Gut (E coli; [4]): 1.93 ± 0.40 SUV
SUV ± STD, Heart (E coli; [4]): 0.73 ± 0.07 SUV
SUV ± STD, Kidney-1 (E coli; [4]): 0.92 ± 0.24 SUV
SUV ± STD, Kidney-2 (E coli; [4]): 1.10 ± 0.09 SUV
SUV ± STD, Liver (E coli; [4]): 0.86 ± 0.08 SUV
SUV ± STD, Lung-1 (E coli; [4]): 2.98 ± 1.02 SUV
SUV ± STD, Lung-2 (E coli; [4]): 2.56 ± 1.82 SUV
SUV ± STD, Normal Thigh (E coli; [4]): 0.31 ± 0.18 SUV
SUV ± STD, Skin (E coli; [4]): 1.46 ± 0.41 SUV
SUV ± STD, Spleen (E coli; [4]): 0.73 ± 0.03 SUV
SUV ± STD, Stomach (E coli; [4]): 0.46 ± 0.07 SUV
SUV ± STD, Adipose (E coli; n = 4, 24 h post infection): 1.13 ± 0.34 SUV
SUV ± STD, Bladder (E coli; n = 4, 24 h post infection): 4.04 ± 5.22 SUV
SUV ± STD, Blood (E coli; n = 4, 24 h post infection): 2.75 ± 0.39 SUV
SUV ± STD, Bone (E coli; n = 4, 24 h post infection): 2.65 ± 1.75 SUV
SUV ± STD, Brain (E coli; n = 4, 24 h post infection): 0.11 ± 0.02 SUV
SUV ± STD, Cecum (E coli; n = 4, 24 h post infection): 1.59 ± 0.35 SUV
SUV ± STD, Eye (E coli; n = 4, 24 h post infection): 1.39 ± 1.17 SUV
SUV ± STD, Feces (E coli; n = 4, 24 h post infection): 0.71 ± 0.24 SUV
SUV ± STD, Gut (E coli; n = 4, 24 h post infection): 1.72 ± 0.31 SUV
SUV ± STD, Heart (E coli; n = 4, 24 h post infection): 1.04 ± 0.28 SUV
SUV ± STD, Kidney-1 (E coli; n = 4, 24 h post infection): 1.69 ± 0.66 SUV
SUV ± STD, Kidney-2 (E coli; n = 4, 24 h post infection): 1.44 ± 0.37 SUV
SUV ± STD, Liver (E coli; n = 4, 24 h post infection): 1.89 ± 0.47 SUV
SUV ± STD, Lung-1 (E coli; n = 4, 24 h post infection): 1.52 ± 0.29 SUV
SUV ± STD, Lung-2 (E coli; n = 4, 24 h post infection): 1.46 ± 0.51 SUV
SUV ± STD, Normal Thigh (E coli; n = 4, 24 h post infection): 0.33 ± 0.16 SUV
SUV ± STD, Skin (E coli; n = 4, 24 h post infection): 1.08 ± 0.42 SUV
SUV ± STD, Spleen (E coli; n = 4, 24 h post infection): 1.75 ± 0.56 SUV
SUV ± STD, Stomach (E coli; n = 4, 24 h post infection): 0.34 ± 0.13 SUV
